From PubChem BioAssay (NCI) come the findings set out here.

Assay in all cases: growth of human tumour cells (NCI), 48 h
The test system of experiment [1] is A549 NSCLC.
The subject of experiment [2] is ACHN renal.
Experiment [3] relates to NCI-H226 lung.
The subject of experiment [4] is NCI-H23 lung.
The test system of experiment [5] is OVCAR-3 ovarian.
Experiment [6] deals with SF-539 CNS.
The test system of experiment [7] is SK-MEL-28 melanoma.
In experiment [8] the test system is TK-10 renal.
Experiment [9] has as its system A498 renal.

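In this assay, cells in 96-well plates receive the compound at five concentrations for 48 hours. Endpoints are linearly interpolated between the surrounding concentrations. GI50: concentration for 50% inhibition of growth. Definition used: TGI = concentration required for complete inhibition of growth.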

As for `[Cl][Sn]([Cl])([c]1ccccc1)[c]1ccccc1`, the GI50 in experiment [1] is 19.8 µM; in experiment [2], 14.4 µM; in experiment [3], 17.7 µM; in experiment [4], 10.4 µM; in experiment [5], 13.4 µM; in experiment [6] it was 16 µM. Moreover, the GI50 in [7] is 2.43 µM; in experiment [8], 15.7 µM. In addition, the TGI was 39.2 µM in experiment [1]; 27.5 µM in experiment [2]; 32.2 µM in experiment [3]; 24 µM in experiment [4]; 26.2 µM in [5]; 29.4 µM in [6]. Also, the TGI is 6.53 µM in experiment [7] and 29.7 µM in experiment [8].

Regarding `CC(=O)N1c2ccccc2C2=CC3C4C(=O)N(c5ccccc5)C(=O)C4C21C1C(=O)N(c2ccccc2)C(=O)C31` (stereo not given), the TGI was greater than 100 µM in [9]; greater than 100 µM in experiment [1]; greater than 100 µM in experiment [2]; greater than 100 µM in experiment [4]; 6.66 µM in [6]; greater than 100 µM in experiment [7]. This compound also showed a TGI in experiment [8] greater than 100 µM.

With `CCN(CC)CCCn1cnc2ncccc2c1=O`, the TGI in experiment [1], in [2], in experiment [3], in [4], in experiment [5] and in experiment [6] was greater than 100 µM each time. The TGI in experiment [7] and in [8] was greater than 100 µM each time.

In the case of `CCCCCCCC(=O)NCC(O)CNC(=O)CCCCCCC`, the TGI in [9], in [1], in [3], in [4], in [5] and in [6] was greater than 100 µM in each case. Moreover, the TGI in experiment [8] is greater than 100 µM.

On to `O=C(CCC(=O)Nc1cccc(Cl)c1)CC(=O)c1ccc(F)cc1`, for which the TGI in [1], in experiment [2], in [3], in experiment [4], in [5] and in experiment [6] was greater than 100 µM in each case. For the same compound, the TGI in experiment [7] and in experiment [8] was greater than 100 µM each time.

`CN(C)CCN(C)CC1COC(C)(C)O1` (stereo not given): the TGI in experiment [9], in [1], in [2], in experiment [3], in experiment [4] and in [5] was greater than 100 µM in each case. In addition, the TGI in [6], in experiment [7] and in [8] was greater than 100 µM each time.

For the compound `O=C(O)C1=CCCc2ccc3ccccc3c21`, the TGI in experiment [9], in experiment [1], in experiment [2], in experiment [3], in [4] and in [5] was greater than 100 µM in each case. Further, the TGI in [6], in experiment [7] and in [8] was greater than 100 µM each time.

As for `Cn1c2c(c3ccccc31)CCN(CCN1CCN(c3ccccc3)CC1)C2=O`, the TGI in experiment [1], in [2], in experiment [4], in [6], in experiment [7] and in [8] was greater than 100 µM each time.

As to `COc1ccc(NC(=O)CC(=O)N2N=C(N(CCC#N)c3ccccc3Cl)CC2c2ccccc2)cc1` (stereo not given), the TGI in [9], in experiment [1], in experiment [2], in experiment [3], in experiment [4] and in experiment [5] was greater than 100 µM throughout. In addition, the TGI in [6], in [7] and in [8] was greater than 100 µM each time.

Regarding `Nc1nc2sc3ccccc3c(=O)n2n1`, the TGI in [1], in experiment [2], in experiment [3], in experiment [4], in experiment [5] and in [6] was greater than 100 µM throughout. For the same compound, the TGI in experiment [7] and in experiment [8] was greater than 100 µM throughout.

As for `CC[O-].CC[O-].O=C([CH-]C(=O)c1cccnc1)c1ccccc1.O=C([CH-]C(=O)c1cccnc1)c1ccccc1.[Ti+4]`, the GI50 in experiment [9] was greater than 100 µM; in [1], greater than 100 µM; in [2], 53.4 µM; in experiment [3] it was 68.1 µM; in experiment [5] it was greater than 100 µM; in experiment [6], 43.1 µM. Also, in [7], the GI50 is greater than 100 µM. Besides, the TGI in experiment [9], in [1], in experiment [2], in experiment [3], in experiment [5] and in experiment [6] was greater than 100 µM each time. The compound further displayed a TGI in experiment [7] greater than 100 µM.

Turning to `COC(=O)C1CCC(Nc2ccc(C)cc2C)=N1` (stereo not given), the TGI in [9], in experiment [1], in experiment [2], in experiment [3], in experiment [4] and in experiment [5] was greater than 100 µM throughout. The TGI in experiment [7] and in experiment [8] was greater than 100 µM in each case.

Take `CCOC(=O)c1c(-c2ccccc2)oc(-c2ccccc2)c1C(=O)OCC`: the TGI in experiment [9], in [1], in [2], in experiment [3], in experiment [4] and in [5] was greater than 100 µM throughout. The TGI in [6], in [7] and in experiment [8] was greater than 100 µM in each case.

In the case of `Cc1noc2cccc(OCc3ccccc3)c12`, the TGI in experiment [1], in experiment [2], in experiment [3], in experiment [4], in experiment [5] and in experiment [6] was greater than 100 µM each time. The TGI in experiment [7] and in experiment [8] was greater than 100 µM in each case.

On to `O=S(=O)(N/N=C/c1ccc(Cl)c(Cl)c1)c1ccccc1`, for which the TGI in experiment [9] was 92.5 µM; in experiment [1], greater than 100 µM; in [2] it was greater than 100 µM; in experiment [3], greater than 100 µM; in experiment [4], greater than 100 µM; in [5] it was greater than 100 µM. Moreover, the TGI in experiment [6], in experiment [7] and in [8] was greater than 100 µM each time.

`O=C(C=Nc1ccccc1C(=O)[O-])c1cccs1.O=C(C=Nc1ccccc1C(=O)[O-])c1cccs1.[Co+2]`: the TGI in experiment [9] was greater than 100 µM; in experiment [1], greater than 100 µM; in experiment [2], greater than 100 µM; in experiment [4], greater than 100 µM; in experiment [5] it was 95.1 µM; in experiment [6], greater than 100 µM. Further, the TGI in experiment [7] and in [8] was greater than 100 µM each time.

Turning to `Cc1oc2c(C)c3oc(=O)cc(C)c3cc2c1CNC(=O)[C@@H]1OCCOCCOCCOCCOCCOC1C(=O)O` (stereo not given in full), the TGI in experiment [9], in experiment [1], in [2], in experiment [3], in [4] and in experiment [5] was greater than 100 µM each time. The TGI in [6] and in experiment [8] was greater than 100 µM throughout.

In the case of `Cc1ccccc1C1=[N+]([O-])c2ccccc2C1=O`, the TGI in [9] is greater than 100 µM; in [2], 30.6 µM; in experiment [3], 30.7 µM; in experiment [4], 35.4 µM; in experiment [5] it was 25.2 µM; in [6] it was 33.7 µM. For the same compound, the values for the TGI in experiment [7] and in experiment [8] were 35.8 µM and 32.2 µM, respectively.

With `COC(c1cccc(C(O)(C(F)(F)F)C(F)(F)F)c1)(C(F)(F)F)C(F)(F)F`, the TGI in experiment [9] amounted to 34.4 µM; in experiment [1], 31.2 µM; in experiment [2], 29.2 µM; in [3], 37.8 µM; in [4] it was 35.3 µM; in experiment [5], 38 µM. For the same compound, the TGI was determined as 33.3 µM in experiment [6] and 36.6 µM in experiment [8].

Turning to `COc1ccc2c(c1)C(=O)N1CCOC1C2C(=O)O` (stereo not given), the TGI in experiment [9], in experiment [1], in [2], in experiment [4], in experiment [5] and in [6] was greater than 100 µM throughout. In addition, the TGI in experiment [7] and in [8] was greater than 100 µM in each case.

In the case of `CCCOC(=O)C1CCC(=O)N1C(=O)C(C)Cl` (stereo not given), the TGI in [9], in experiment [1], in experiment [2], in [3], in experiment [4] and in experiment [5] was greater than 100 µM each time. The TGI in [7] and in [8] was greater than 100 µM throughout.

With `CC1OC(n2ccc(=O)[nH]c2=O)C=C(OC(=O)c2ccccc2)C1=O` (stereo not given), the TGI in [1] was greater than 100 µM; in [2], greater than 100 µM; in [4] it was greater than 100 µM; in experiment [5] it was 53.4 µM; in experiment [6] it was greater than 100 µM; in [7] it was greater than 100 µM. In experiment [8], the TGI was greater than 100 µM.
